Experimental data: patent US5843954A, “Camptothecin derivatives, preparations thereof and antitumor agents” (priority 1994, dated 1998)
Values after ≈ are worked out from the molar mass of the structure shown. Structures can show the parent of a compound that is named as a salt.

Key:
[1] = Antitumor activity for L1210 (life prolonging effect, mouse leukemia transplanted intraperitoneally); format: in vivo; settings: mouse, in vivo, ip; numerator of therapeutic index; i.p. total dose; read-out: Maximum tolerable dose
Method: (§1) 5×10^5 cells of mouse leukemia L1210 were transplanted intraperitoneally to a group of six female CDF1 mice (7 weeks old, body weight 17-19 g). The test compound was administered intraperitoneally on day 1, 5 and 9 and its life prolonging effect was observed.
(§2) In a case of the administration of a test compound as an acid addition salt the test compound was dissolved in water. The total administration amount was 1.56 mg/kg-400 mg/kg. The antitumor activity was expressed by the value (T/C%) wherein T denotes the mean survival days in the drug administered group and C denotes those in the non administered group. In case of equal to or more than 125% the drug is considered to be effective.

mouse leukemia L1210 = assay: as above; format: in vivo; settings: for 40-day survivors: group of six female CDF1 mice; for Therapeutic Index (Maximum tolerable dose/Minimum effective dose): i.p., L1210, CDF1 mice; for minimal effective dose: Mus musculus, L1210, ip, read-out: Minimum effective dose
Method: as §1, §2

[2] = Acute toxicity test by intraperitoneal administration; settings: mouse, in vivo, ip, ICR male mice, 1 week observation
Method: Acute toxicity test was conducted by intraperitoneal administration using a group of twenty ICR male mice (4 weeks old, body weight around 20 g).
LD50 value was calculated by the Richfield-Willcokson method from a lethal ratio observing the fate of mice during 1 week after administration of a test compound.

Water solubility = format: physicochemical
[3] = denominator of therapeutic index, i.p. total dose

Row | SMILES | MTD [1] | Optimum dose: Total dose (mouse leukemia L1210; CDF1 mice, i.p. on day 1, 5 and 9, total dose) | 40-day survivors (mouse leukemia L1210; at optimum dose) | T/C % (mouse leukemia L1210; at optimum dose, i.p. on day 1, 5 and 9, mean survival days treated/non administered, >=125% effective) | Minimum effective dose (mouse leukemia L1210; [3]) | Therapeutic Index (Maximum tolerable dose/Minimum effective dose) (mouse leukemia L1210) | LD50 at 168 h [2] | minimal effective dose (mouse leukemia L1210; [3]) | solubility (Water solubility)
1 | CC[C@@](O)(C(=O)O)c1cc2n(c(=O)c1CO)Cc1cc3ccccc3nc1-2 [CPT-Na salt, reference compound] | 60 mg/kg | 60 mg/kg | 0/6 | 203% | 10 mg/kg | 6 | 227 mg/kg |  | 
2 | CCOc1ccc2nc3c(c(C)c2c1)Cn1c-3cc([C@@](O)(CC)C(=O)NCCN(C)C)c(COC(=O)CCSC)c1=O [Compound C1] | 6.25 mg/kg |  | 0/6 |  |  | 4 | 164 mg/kg | 1.56 mg/kg | > 64 mg/mL
3 | CC[C@@](O)(C(=O)NCCN(C)C)c1cc2n(c(=O)c1COC(=O)CCSC)Cc1c-2nc2cc(Br)ccc2c1C [Compound C2] | 25 mg/kg |  | 0/6 |  |  | 8 | 241 mg/kg | 3.13 mg/kg | > 67 mg/mL
4 | CCC(=O)OCc1c([C@@](O)(CC)C(=O)NCCN(C)C)cc2n(c1=O)Cc1c-2nc2ccc(Cl)cc2c1CC [Compound C3] | 6.25 mg/kg |  | 1/6 |  |  | > 4 | 186 mg/kg | < 1.56 mg/kg | 29 mg/mL (≈ 52.2 mM)
5 | CCCC(=O)OCc1c([C@@](O)(CC)C(=O)NCCN(C)C)cc2n(c1=O)Cc1c-2nc2ccc(Cl)cc2c1CC [Compound C4] | 6.25 mg/kg |  | 1/6 |  |  | > 4 | 142 mg/kg | < 1.56 mg/kg | 41 mg/mL (≈ 72 mM)
6 | CCc1c2c(nc3ccc(Cl)cc13)-c1cc([C@@](O)(CC)C(=O)NCCN(C)C)c(COC(=O)CCSC)c(=O)n1C2 [Compound C5] | 6.25 mg/kg |  | 3/6 |  |  | > 4 | 168 mg/kg | < 1.56 mg/kg | 21 mg/mL (≈ 34.9 mM)
7 | CCc1c2c(nc3ccc(Br)cc13)-c1cc([C@@](O)(CC)C(=O)NCCN(C)C)c(COC(=O)CCSC)c(=O)n1C2 [Compound C6] | 6.25 mg/kg |  | 1/6 |  |  | > 4 | 116 mg/kg | < 1.56 mg/kg | 25 mg/mL (≈ 38.7 mM)
8 | CCc1c2c(nc3ccc(C)cc13)-c1cc([C@@](O)(CC)C(=O)NCCN(C)C)c(COC(=O)CCSC)c(=O)n1C2 [Compound C7] | 100 mg/kg |  | 5/6 |  |  | 32 | 234 mg/kg | 3.13 mg/kg | 21 mg/mL (≈ 36.2 mM)
9 | CCC(=O)OCc1c([C@@](O)(CC)C(=O)NCCN(C)C)cc2n(c1=O)Cc1c-2nc2cc(F)ccc2c1CC [Compound C8] | 12.5 mg/kg |  | 4/6 |  |  | 8 | 124 mg/kg | 1.56 mg/kg | 20 mg/mL (≈ 37.1 mM)
10 | CCCC(=O)OCc1c([C@@](O)(CC)C(=O)NCCN(C)C)cc2n(c1=O)Cc1c-2nc2cc(F)ccc2c1CC [Compound C9] | 12.5 mg/kg |  | 2/6 |  |  | 8 | 152 mg/kg | 1.56 mg/kg | > 59 mg/mL
11 | CCc1c2c(nc3cc(F)ccc13)-c1cc([C@@](O)(CC)C(=O)NCCN(C)C)c(COC(=O)CCSC)c(=O)n1C2 [Compound C10] | 12.5 mg/kg |  | 1/6 |  |  | 8 | 146 mg/kg | 1.56 mg/kg | > 62 mg/mL
12 | CCc1c2c(nc3cc(F)ccc13)-c1cc([C@@](O)(CC)C(=O)NCCN(C)C)c(COC(=O)c3ccc(OC)cc3)c(=O)n1C2 [Compound C11] | 50 mg/kg |  | 0/6 |  |  | 8 | 146 mg/kg | 6.25 mg/kg | 8 mg/mL (≈ 13 mM)
13 | CCc1c2c(nc3cc(Cl)ccc13)-c1cc([C@@](O)(CC)C(=O)NCCN(C)C)c(COC(=O)CCSC)c(=O)n1C2 [Compound C12] | 25 mg/kg |  | 1/6 |  |  |  | 284 mg/kg | 6.25 mg/kg | > 64 mg/mL
14 | CCC(=O)OCc1c([C@@](O)(CC)C(=O)NCCN(C)C)cc2n(c1=O)Cc1c-2nc2cc(F)c(F)cc2c1CC [Compound C13] |  |  | 0/6 |  |  |  | 67.6 mg/kg |  | > 59 mg/mL
15 | CCCC(=O)OCc1c([C@@](O)(CC)C(=O)NCCN(C)C)cc2n(c1=O)Cc1c-2nc2cc(F)c(F)cc2c1CC [Compound C14] |  |  | 1/6 |  |  |  | 98.3 mg/kg |  | > 60 mg/mL
16 | CCc1c2c(nc3cc(F)c(F)cc13)-c1cc([C@@](O)(CC)C(=O)NCCN(C)C)c(COC(=O)CCSC)c(=O)n1C2 [Compound C15] |  |  | 0/6 |  |  |  | 85.2 mg/kg |  | > 64 mg/mL
17 | CCc1c2c(nc3cc(F)c(F)cc13)-c1cc([C@@](O)(CC)C(=O)NCCN(C)C)c(COC(=O)c3ccc(OC)cc3)c(=O)n1C2 [Compound C16] | 12.5 mg/kg |  | 0/6 |  |  | 2 | 65.6 mg/kg | 6.25 mg/kg | 6 mg/mL (≈ 9.45 mM)
18 | CCC(=O)OCc1c([C@@](O)(CC)C(=O)NCCN(C)C)cc2n(c1=O)Cc1c-2nc2cc(Cl)c(Cl)cc2c1CC [Compound C17] | 6.25 mg/kg |  | 2/6 |  |  | 4 | 112 mg/kg | 1.56 mg/kg | > 64 mg/mL
19 | CCCC(=O)OCc1c([C@@](O)(CC)C(=O)NCCN(C)C)cc2n(c1=O)Cc1c-2nc2cc(Cl)c(Cl)cc2c1CC [Compound C18] | 3.13 mg/kg |  | 0/6 |  |  | > 2 | 92.3 mg/kg | < 1.56 mg/kg | 35 mg/mL (≈ 58 mM)
20 | CCc1c2c(nc3cc(F)c(OC)cc13)-c1cc([C@@](O)(CC)C(=O)NCCN(C)C)c(COC(=O)CCSC)c(=O)n1C2 [Compound C22] |  |  | 0/6 |  |  |  | 68.6 mg/kg |  | > 65 mg/mL
21 | CC=CC(=O)OCc1c([C@@](O)(CC)C(=O)NCCN(C)C)cc2n(c1=O)Cc1c-2nc2ccc(O)cc2c1CC [Compound C34] |  |  |  |  |  |  |  |  | > 59 mg/mL
22 | CCc1c2c(nc3ccc(C)cc13)-c1cc([C@@](O)(CC)C(=O)NCCN(C)C)c(COC(=O)c3ccncc3)c(=O)n1C2 [Compound C39] | 50 mg/kg |  | 3/6 |  |  | 16 | 320 mg/kg | 3.13 mg/kg | 
23 | CCc1c2c(nc3ccc(Cl)cc13)-c1cc([C@@](O)(CC)C(=O)NCCN(C)C)c(COC(=O)c3ccncc3)c(=O)n1C2 [Compound C40] | 6.25 mg/kg |  | 1/6 |  |  | 4 | 213 mg/kg | 1.56 mg/kg | 
24 | CCc1c2c(nc3cc(F)ccc13)-c1cc([C@@](O)(CC)C(=O)NCCN(C)C)c(COC(=O)c3ccncc3)c(=O)n1C2 [Compound C41] | 25 mg/kg |  | 2/6 |  |  | > 16 | 220 mg/kg | < 1.56 mg/kg | 
25 | CCc1c2c(nc3cc(F)c(C)cc13)-c1cc([C@@](O)(CC)C(=O)NCCN(C)C)c(COC(=O)c3ccncc3)c(=O)n1C2 [Compound C42] | 12.5 mg/kg |  | 2/6 |  |  | > 8 | 310 mg/kg | 1.56 mg/kg | 
26 | CCc1c2c(nc3cc(F)c(OC)cc13)-c1cc([C@@](O)(CC)C(=O)NCCN(C)C)c(COC(=O)c3ccncc3)c(=O)n1C2 [Compound C43] | 6.25 mg/kg |  | 2/6 |  |  | > 4 | 165 mg/kg | 1.56 mg/kg | 
27 | CCc1c2c(nc3ccc(O)cc13)-c1cc([C@@](O)(CC)C(=O)NCCN(C)C)c(COC(C)=O)c(=O)n1C2 [Compound C45] | 400 mg/kg |  | 0/6 |  |  | 4 | 376 mg/kg | 100 mg/kg | 
28 | CCc1c2c(nc3ccc(O)cc13)-c1cc([C@@](O)(CC)C(=O)NCCN(C)C)c(COC(=O)C(C)C)c(=O)n1C2 [Compound C46] | 400 mg/kg |  | 0/6 |  |  | 16 | 478 mg/kg | 25 mg/kg | 
29 | CCOCCC(=O)OCc1c([C@@](O)(CC)C(=O)NCCN(C)C)cc2n(c1=O)Cc1c-2nc2ccc(O)cc2c1CC [Compound C47] | 200 mg/kg |  | 0/6 |  |  | 4 | 471 mg/kg | 50 mg/kg | 
30 | CCc1c2c(nc3ccc(OC(C)=O)cc13)-c1cc([C@@](O)(CC)C(=O)NCCN(C)C)c(COC(=O)c3ccc(F)cc3)c(=O)n1C2 [Compound C48] | 200 mg/kg |  | 0/6 |  |  | 8 | 418 mg/kg | 25 mg/kg | 
